This is an account of results in patent US8765683B2, “T-140 peptide analogs having CXCR4 super-agonist activity for cancer therapy” (Biokine Therapeutics Ltd., priority 2006, dated 2014).

One experiment concerns 22Rv1. As to the kind of experiment: Proliferation of 22Rv1 prostate carcinoma cells. It counts as cell-based.
For the next experiment, the system named is PC3-CXCR4.5 cells. Description: MIP3α secretion by PC3-CXCR4.5 cells (ELISA). It counts as cell-based. The note with it: ELISA. The protocol:
In this example, regulation of the chemokine MIP3α (macrophage inflammatory protein 3α) was examined. […] In FIG. 1B, PC3 (left panel) and PC3-CXCR4.5 (right panel) cells were stimulated with the indicated concentrations of CXCL12 for 48 hours and MIP3α secretion was assessed by ELISA. The results represent the average of triplicates±STDEV.
The effects of the CXCR4 antagonist AMD3100 and of 4F-benzoyl-TN14003 (4FB-TN14003), hitherto known as a CXCR4 antagonist, on MIP3α secretion were further tested. […] In FIG. 1C, CXCR4 signaling in PC3 (left panel) and PC3-CXCR4.5 (right panel) cells was inhibited with anti-CXCL12 antibodies (αCXCL12) and Pertussis toxin (PTX) treatments alone or in combination with CXCL12, as indicated. Secretion of MIP3α was assessed by ELISA. The results represent the average of triplicates±STDEV.
In general terms: ELISA stands for enzyme-linked immunosorbent assay.

The next experiment deals with HL-60 cells. Description: Proliferation and apoptosis (Annexin V) of HL-60 cells. As to conditions: 4F-benzoyl-TN14003 4-20 μM. The format is cell-based, human.
In the next experiment the test system is Jurkat cells. Description: Migration of Jurkat cells in response to CXCL12. The format is cell-based, human. The note with it: CXCL12 50 ng/ml; peptide incubated with Proteinase K. The text has this: AMD3100 was purchased from Sigma, Israel.
The next experiment deals with human CD4+ T cells. Description: Proliferation and survival of CD4+ T cells. The format is cell-based. As to conditions: AMD-3100 20 μM; 4F-benzoyl-TN14003 4-20 μM. The protocol: The effect of CXCR4 antagonists on the survival of freshly isolated normal CD4^+ T cells, CD34^+ stem cells and keratinocytes was examined. The proliferation and survival of keratinocytes was not inhibited by CXCR4 antagonists AMD-3100 (20 μM) and 4F-benzoyl-TN14003 (4-20 μM) or the natural ligand CXCL12 (FIG. 2C). The proliferation and survival of CD4^+ T cells was not inhibited by CXCR4 antagonists AMD-3100 (20 μM).

Another experiment has as its system U87 glioma cells. As to the kind of experiment: Survival and death of U87 glioma cells (Annexin V). It counts as cell-based. The method, then: U87 cells were treated with 4F-benzoyl-TN14003 and tested for their survival (FIG. 15A) and death (FIG. 15B).
In another experiment the test system is PC3 cells. Description: Proliferation of PC3 prostate tumor cells. The format is cell-based. The protocol: Next, the effect of the CXCR4 modulators on PC3 and PC3-CXCR4.5 prostate tumor cells was tested. […] The proliferation induced by 4F-benzoyl-TN14003 was dose-dependent (FIG. 3B).
The test system of a further experiment is ARH77. Description: Proliferation and apoptosis (annexin) of ARH77 MM cells. The format is cell-based, human. The note with it: 4F-benzoyl-TN14003 0.4-40 μM.

Bridge positions count the residues as written; N and C are the ends. Square brackets hold non-standard residues; d marks the D form. Peptide text beside a SMILES is read from it. * marks the point of attachment. 2Nal = N[C@@H](Cc1ccc2ccccc2c1)C(=O)O; Benzoyl(4-F) = O=C(c1ccc(F)cc1)*; Cit = NC(=O)NCCC[C@H](N)C(=O)O

As to `N=C(N)NCCC[C@H](NC(=O)[C@@H]1CSSC[C@H](NC(=O)[C@H](Cc2ccc3ccccc3c2)NC(=O)[C@H](CCCNC(=N)N)NC(=O)[C@H](CCCNC(=N)N)NC(=O)c2ccc(F)cc2)C(=O)N[C@@H](Cc2ccc(O)cc2)C(=O)N[C@@H](CCCNC(N)=O)C(=O)N[C@@H](CCCCN)C(=O)N[C@H](CCCCN)C(=O)N2CCC[C@H]2C(=O)N[C@@H](Cc2ccc(O)cc2)C(=O)N[C@@H](CCCNC(=N)N)C(=O)N[C@@H](CCCNC(N)=O)C(=O)N1)C(N)=O` [4F-benzoyl-TN14003, 4F-benzoyl-Arg-Arg-Nal-Cys-Tyr-Cit-Lys-DLys-Pro-Tyr-Arg-Cit-Cys-Arg-NH2] ({Benzoyl(4-F)}-RR[2Nal]CY[Cit]K[dK]PYR[Cit]CR-NH2; disulfide 4-13), the figures for the proliferation result in the experiment with 22Rv1 and in the experiment on PC3 cells were “either stimulated or not affected” and “induced the proliferation of prostate cancer cells”, respectively. In addition, in the experiment with PC3-CXCR4.5 cells, the MIP3α secretion entry is given as “induced in both cell lines MIP3α secretion in an agonist manner”. In addition, the “apoptotic cell death (Annexin V assay)” value with HL-60 cells is “stimulate apoptotic cell death”. Besides, the growth result in the experiment on HL-60 cells was “inhibit the growth”; in the experiment on ARH77, “inhibited the growth”. For the same molecule, the “activity on migration of Jurkat cells in response to CXCL12 after treatment of the peptide with proteinease K” value with Jurkat cells is on record as “abolished the activity of the peptide”. The “proliferation and survival of CD4+ T cells” value with human CD4+ T cells is on record as “induced T cell proliferation”. The “tumor cell death of glioma cells” value in the experiment with U87 glioma cells is given as “induce tumor cell death”. In the experiment on ARH77, the “apoptotic cell death (annexin assay)” value is on record as “stimulated apoptotic cell death”.
